Assay results as given in PMC9246773, “Assessing the Activity of Antimicrobial Peptides Against Common Marine Bacteria Located in Rotifer (Brachionus plicatilis) Cultures” (Probiotics and Antimicrobial Proteins, 2022).
No end group written: not given here.

Experiments:
Assay type in all cases: cell-based
Vibrio alginolyticus [1] = conditions: 48 h
Method: (§1) A range of bacterial species with the potential to be transferred to developing fish larvae as pathogens or probiotics were selected for use in the study (Table 2). Bacterial isolates were stored at −80 °C and thawed, and 25 µL of the isolates was spread onto marine salt agar (MSA) media. All isolates were incubated at 25 °C for 18 h to reach mid-log growth phase. All isolates were sub-cultured and identified using mass spectrometry (MALDI-TOF) using the BioTyper and MBT 8468 library (Bruker Pty Ltd). The isolate Tenacibaculum discolor was plated on Anacker and Oradal’s marine (AOM) media, incubated for 48 h and identified using the aforementioned method. Bacterial isolates were suspended in sterile saline (0.75% NaCl w/v) to 0.5 McFarland standard. […] The bacterial isolates T. discolor and Pseudoalteromonas sp. require marine salts to grow and were not added to MHB (0‰). The isolate T. discolor requires low nutrients to grow, therefore, a separate MHB (25‰) was prepared at a diluted ratio of 1 part MHB and 7 parts artificial seawater (25‰).
(§2) The protocol was followed to determine the minimum inhibitory concentration (MIC) of the selected peptides. Two MIC assays were performed, firstly to determine whether each peptide precipitated in MHB and thereby required acetic acid adjustments (supplementary materials) and secondly, to determine the antimicrobial activity of each peptide in artificial seawater (25‰). Peptide stock solutions (1.3 mg mL^−1) were made by diluting the peptides in sterile deionised water. MHB was made with deionised water to reach a concentration of approaching 0‰ and artificial sea salts (Sigma-Aldrich® S9883) to reach a salinity of 25‰.
(§3) A broth microdilution protocol was followed to test whether the AMPs precipitated in MHB. The isolates T. discolor and Pseudoalteromonas were excluded from this assay because they required marine salts for growth. The peptides HHC10 and HHC36 previously required acetic acid adjustments according to [63] and were not trialled in this assay. To test if peptides required acetic acid, each peptide was diluted 1:2 in acetic acid (0.02% acetic acid w/v, containing 0.4% BSA) solution. In a 96-well polypropylene microtitre plates (Costar® 3879), 100 µL of this peptide stock was added to the first well for each bacterial isolate tested and serially diluted 2-fold with acetic acid (0.01% acetic acid w/v, containing 0.2% BSA). From each well, 10 µL of each peptide concentration was added to the corresponding wells of a new 96-well microtitre plate. From each of the bacterial suspensions in MHB (0‰), 90 µL was added to each well. […] From each of the bacterial suspensions in MHB (0‰), 50 µL was added to each well. All peptide concentrations ranged from 0.125 - 65µg mL^-1 and the bacterial suspension in each well was approximately 5 × 10^5 CFU mL^-1. Antimicrobial peptides that have an MIC value two or more dilutions higher in the assay with no acetic acid, compared to the assay with acetic acid, require acetic acid adjustments. The 96-well plates were incubated at 25 °C and read at 24 and 48 hours. The MIC was visually determined using a Sensititre™ Vizion™ Digital MIC Viewing System (Thermo Scientific™), and the lowest AMP concentration that had no bacterial growth was recorded as the MIC after 48 hours. Each bacterium was trialled in duplicate.

Vibrio rotiferianus [2] = conditions: 48 h
Method: as §1, §2, §3

[3] = test system: Vibrio harveyi (ATCC 35084); conditions: ATCC 35084, 48 h
Method: as §1, §2, §3

[4] = test system: Escherichia coli (ATCC 25922); conditions: ATCC 25922, 48 h
Method: as §1, §2, §3

Vibrio harveyi [5] = conditions: 48 h
Method: as §1, §2, §3

Vibrio scophthalmi [6] = conditions: 48 h
Method: as §1, §2, §3

Shewanella sp. [7] = conditions: 48 h
Method: as §1, §2, §3

bacterial isolates [8] = conditions: 48 h
Method: as §1, §2
Once the acetic acid requirement for each peptide was determined (Table 3), the antimicrobial activity of each peptide was tested at a salinity of 0‰ and 25‰ for all bacterial isolates. A stock solution for peptides that required acetic acid was prepared by a 1:2 dilution in acetic acid (0.02% acetic acid w/v, containing 0.4% BSA) solution. In a 96-well polypropylene microtitre plates (Costar® 3879), 100 µL of this peptide stock was added to the first well for each bacterial isolate tested and serially diluted twofold with acetic acid (0.01% acetic acid w/v, containing 0.2% BSA). From each well, 10 µL of each peptide concentration was added to the corresponding wells of a new 96-well microtitre plate. From each of the bacterial suspensions (0‰), 90 µL was added to each well. […] Twofold serial dilutions were made with MHB (0‰). From each of the bacterial suspensions (0‰), 50 µL was added to each well. The same method was followed for testing peptides in MHB at 25‰. All peptide concentrations ranged from 0.125 to 65 µg mL^−1, and the bacterial suspension in each well was approximately 5 × 10^5 CFU mL^−1. […]

Vibrio alginolyticus [9] = conditions: 48 h; remark: listed apart in the source
Method: as §1, §2
(§4) Once the acetic acid requirement for each peptide was determined (Table 3), the antimicrobial activity of each peptide was tested at a salinity of 0‰ and 25‰ for all bacterial isolates. A stock solution for peptides that required acetic acid was prepared by a 1:2 dilution in acetic acid (0.02% acetic acid w/v, containing 0.4% BSA) solution. In a 96-well polypropylene microtitre plates (Costar® 3879), 100 µL of this peptide stock was added to the first well for each bacterial isolate tested and serially diluted twofold with acetic acid (0.01% acetic acid w/v, containing 0.2% BSA). From each well, 10 µL of each peptide concentration was added to the corresponding wells of a new 96-well microtitre plate. From each of the bacterial suspensions (0‰), 90 µL was added to each well. […] Twofold serial dilutions were made with MHB (0‰). From each of the bacterial suspensions (0‰), 50 µL was added to each well. The same method was followed for testing peptides in MHB at 25‰. All peptide concentrations ranged from 0.125 to 65 µg mL^−1, and the bacterial suspension in each well was approximately 5 × 10^5 CFU mL^−1. The different salinities were used to compare any differences in antimicrobial activity in 0‰ and 25‰ water. […] Each bacterium was trialled in duplicate.

Pseudoalteromonas sp. = conditions: 48 h
Method: as §1, §2, §4

Vibrio rotiferianus [10] = conditions: 48 h; remark: listed apart in the source
Method: as §1, §2, §4

[11] = test system: Vibrio harveyi (ATCC 35084); conditions: ATCC 35084, 48 h; remark: listed apart in the source
Method: as §1, §2, §4

[12] = test system: Escherichia coli (ATCC 25922); conditions: ATCC 25922, 48 h; remark: listed apart in the source
Method: as §1, §2, §4

Tenacibaculum discolor = conditions: 48 h
Method: as §1, §2, §4

Vibrio harveyi [13] = conditions: 48 h; remark: listed apart in the source
Method: as §1, §2, §4

Vibrio scophthalmi [14] = conditions: 48 h; remark: listed apart in the source
Method: as §1, §2, §4

Shewanella sp. [15] = conditions: 48 h; remark: listed apart in the source
Method: as §1, §2, §4

bacterial isolates [16] = conditions: 48 h; remark: listed apart in the source
Method: as §1, §2, §4

Substance | MIC V. alginolyticus, Acetic (Vibrio alginolyticus [1]) [µg/mL] | MIC V. alginolyticus, No acetic (Vibrio alginolyticus [1]) [µg/mL] | MIC V. rotiferianus, Acetic (Vibrio rotiferianus [2]) [µg/mL] | MIC V. rotiferianus, No acetic (Vibrio rotiferianus [2]) [µg/mL] | MIC V. alginolyticus, salinity 0‰ (Vibrio alginolyticus [9]) [µg/mL] | MIC V. alginolyticus, salinity 25‰ (Vibrio alginolyticus [9]) [µg/mL] | MIC Pseudoalteromonas sp., salinity 25‰ (Pseudoalteromonas sp.) [µg/mL] | MIC V. rotiferianus, salinity 0‰ (Vibrio rotiferianus [10]) [µg/mL] | MIC V. rotiferianus, salinity 25‰ (Vibrio rotiferianus [10]) [µg/mL] | MIC V. harveyi ATCC 35084, salinity 0‰ [11] [µg/mL] | MIC V. harveyi ATCC 35084, salinity 25‰ [11] [µg/mL] | MIC E. coli ATCC 25922, salinity 0‰ [12] [µg/mL] | MIC E. coli ATCC 25922, salinity 25‰ [12] [µg/mL] | MIC T. discolor, salinity 25‰ (Tenacibaculum discolor) [µg/mL] | MIC V. harveyi, salinity 0‰ (Vibrio harveyi [13]) [µg/mL] | MIC V. harveyi, salinity 25‰ (Vibrio harveyi [13]) [µg/mL] | MIC V. scophthalmi, salinity 0‰ (Vibrio scophthalmi [14]) [µg/mL] | MIC V. scophthalmi, salinity 25‰ (Vibrio scophthalmi [14]) [µg/mL] | MIC Shewanella sp., salinity 0‰ (Shewanella sp. [15]) [µg/mL] | MIC Shewanella sp., salinity 25‰ (Shewanella sp. [15]) [µg/mL] | other results
ILVRWIRWRIQW-NH2 [Peptide 3002] | 4.06 | 2.03 | 4.06 | 2.03 | 8.13 | > 65 | 65 | 8.13 | > 65 | 8.13 | > 65 | 65 | > 65 | 32.5 | 8.13 | > 65 | 2.03 | > 65 | 8.13 | > 65 | MIC V. harveyi ATCC 35084, Acetic [3]: 4.06 µg/mL; MIC V. harveyi ATCC 35084, No acetic [3]: 2.03 µg/mL; MIC E. coli ATCC 25922, Acetic [4]: 8.13 µg/mL; MIC E. coli ATCC 25922, No acetic [4]: 16.25 µg/mL; MIC V. harveyi, Acetic (Vibrio harveyi [5]): 4.06 µg/mL; MIC V. harveyi, No acetic (Vibrio harveyi [5]): 2.03 µg/mL; MIC V. scophthalmi, Acetic (Vibrio scophthalmi [6]): 1.02 µg/mL; MIC V. scophthalmi, No acetic (Vibrio scophthalmi [6]): 0.51 µg/mL; MIC Shewanella sp., Acetic (Shewanella sp. [7]): 8.13 µg/mL; MIC Shewanella sp., No acetic (Shewanella sp. [7]): 4.06 µg/mL; MIC in low salt conditions (over the bacterial isolates) (bacterial isolates [8]): 1 to 10 µg/mL
KKWQLLIKWKLR-NH2 [Peptide 3008] | 1.02 | 2.03 | 2.03 | 1.02 | 2.03 | > 65 | > 65 | 2.03 | > 65 | 8.13 | > 65 | 8.13 | > 65 | > 65 | 4.06 | > 65 | < 0.13 | 32.5 | 16.25 | 32.5 | MIC V. harveyi ATCC 35084, Acetic [3]: 16.25 µg/mL; MIC V. harveyi ATCC 35084, No acetic [3]: 16.25 µg/mL; MIC E. coli ATCC 25922, Acetic [4]: > 65 µg/mL; MIC E. coli ATCC 25922, No acetic [4]: > 65 µg/mL; MIC V. harveyi, Acetic (Vibrio harveyi [5]): 4.06 µg/mL; MIC V. harveyi, No acetic (Vibrio harveyi [5]): 4.06 µg/mL; MIC V. scophthalmi, Acetic (Vibrio scophthalmi [6]): 0.51 µg/mL; MIC V. scophthalmi, No acetic (Vibrio scophthalmi [6]): 1.02 µg/mL; MIC Shewanella sp., Acetic (Shewanella sp. [7]): 8.13 µg/mL; MIC Shewanella sp., No acetic (Shewanella sp. [7]): 16.25 µg/mL; MIC in artificial seawater (25‰) (over the bacterial isolates) (bacterial isolates [16]): 32.5 µg/mL
KRWWKWIRW-NH2 [HHC10] |  |  |  |  | 2.03 | > 65 | > 65 | 2.03 | > 65 | 4.06 | > 65 | 4.06 | > 65 | > 65 | 8.13 | > 65 | 2.03 | > 65 | 4.06 | > 65 | MIC in low salt conditions (over the bacterial isolates) (bacterial isolates [8]): 1 to 10 µg/mL; MIC in artificial seawater (25‰) (over the bacterial isolates) (bacterial isolates [16]): > 65 µg/mL
